Data: US4820694A, “Modifications of 3-O-demethylmycinose in macrocin and lactenocin” (priority 1986, dated 1989)
Values after ≈ are worked out from the molar mass of the structure shown. Like-named read-outs stand apart in the source and are kept apart here.

Experiments:
Escherichia coli EC14 = assay: standard agar-dilution MIC assay; format: cell-based; conditions: agar-dilution, read-out: MIC
Experimental: (§1) The MIC's in Table III were determined by standard agar-dilution assays. The MIC's in Table IV were obtained using conventional brothdilution microtiter tests.

[1] = test system: Haemophilus influenzae 76; assay: standard agar-dilution MIC assay; format: cell-based; conditions: Haemophilus influenzae, 76
Experimental: as §1

[2] = test system: Haemophilus influenzae C.L.; assay: standard agar-dilution MIC assay; format: cell-based; conditions: Haemophilus influenzae
Experimental: as §1

[3] = test system: Klebsiella pneumoniae X68; assay: standard agar-dilution MIC assay; format: cell-based; conditions: Klebsiella pneumoniae, X68; agar-dilution; read-out: MIC
Experimental: as §1

[4] = test system: Pseudomonas aeruginosa X239; assay: standard agar-dilution MIC assay; format: cell-based; conditions: Pseudomonas aeruginosa, X239; agar-dilution; read-out: MIC
Experimental: as §1

[5] = test system: Staphylococcus aureus V41; assay: standard agar-dilution MIC assay; format: cell-based; conditions: Staphylococcus aureus, V41
Experimental: as §1

[6] = test system: Staphylococcus aureus X1.1; assay: standard agar-dilution MIC assay; format: cell-based; conditions: Staphylococcus aureus, X1.1
Experimental: as §1

[7] = test system: Staphylococcus aureus X400; assay: standard agar-dilution MIC assay; format: cell-based; conditions: Staphylococcus aureus, X400
Experimental: as §1

[8] = test system: Staphylococcus epidermidis EPI1; assay: standard agar-dilution MIC assay; format: cell-based; conditions: Staphylococcus epidermidis, EPI1
Experimental: as §1

[9] = test system: Streptococcus Group D 9960; assay: standard agar-dilution MIC assay; format: cell-based; conditions: GROUPD9960, read-out: MIC
Experimental: as §1

[10] = test system: Streptococcus Group D X66; assay: standard agar-dilution MIC assay; format: cell-based; conditions: read-out: MIC
Experimental: as §1

[11] = test system: Streptococcus pyogenes C203; assay: standard agar-dilution MIC assay; format: cell-based; conditions: Streptococcus pyogenes, C203
Experimental: as §1

[12] = test system: Staphylococcus aureus S13E; assay: microbe, parasite or virus in culture; format: cell-based; conditions: Staphylococcus aureus, S13E
Experimental: as §1

[13] = test system: Streptococcus pneumoniae Park I; assay: microbe, parasite or virus in culture; format: cell-based; conditions: Streptococcus pneumoniae
Experimental: as §1

[14] = test system: Bordetella bronchiseptica; assay: broth-dilution microtiter MIC test; format: cell-based; conditions: Bordetella bronchiseptica; broth-dilution microtiter; read-out: MIC
Experimental: as §1

[15] = test system: Mycoplasma gallisepticum 15E; assay: broth-dilution microtiter MIC test; format: cell-based; conditions: Mycoplasmoides gallisepticum, 15E
Experimental: as §1

[16] = test system: Mycoplasma gallisepticum 29C; assay: broth-dilution microtiter MIC test; format: cell-based; conditions: Mycoplasmoides gallisepticum, 29C
Experimental: as §1

[17] = test system: Mycoplasma gallisepticum 36H; assay: broth-dilution microtiter MIC test; format: cell-based; conditions: Mycoplasmoides gallisepticum, 36H
Experimental: as §1

Mycoplasma hyorhinis 29E = assay: broth-dilution microtiter MIC test; format: cell-based; conditions: Mycoplasma, 29E
Experimental: as §1

Mycoplasma synoviae 40A = assay: broth-dilution microtiter MIC test; format: cell-based; conditions: Mycoplasmopsis synoviae, 40A
Experimental: as §1

[18] = test system: Pasteurella hemolytica 22C; assay: broth-dilution microtiter MIC test; format: cell-based; conditions: Pasteurella, 22C
Experimental: as §1

[19] = test system: Pasteurella hemolytica 23C; assay: broth-dilution microtiter MIC test; format: cell-based; conditions: Pasteurella, 23C
Experimental: as §1

[20] = test system: Pasteurella hemolytica 41D; assay: broth-dilution microtiter MIC test; format: cell-based; conditions: Pasteurella, 41D
Experimental: as §1

[21] = test system: Pasteurella multocida 17E; assay: broth-dilution microtiter MIC test; format: cell-based; conditions: Pasteurella multocida, 17E
Experimental: as §1

[22] = test system: Pasteurella multocida 22A; assay: broth-dilution microtiter MIC test; format: cell-based; conditions: Pasteurella multocida, 22A
Experimental: as §1

[23] = test system: Pasteurella multocida 40G; assay: broth-dilution microtiter MIC test; format: cell-based; conditions: Pasteurella multocida, 40G
Experimental: as §1

[24] = test system: Pasteurella multocida 60A; assay: broth-dilution microtiter MIC test; format: cell-based; conditions: Pasteurella multocida, 60A
Experimental: as §1

[25] = test system: Pasteurella multocida 68C; assay: broth-dilution microtiter MIC test; format: cell-based; conditions: Pasteurella multocida, 68C
Experimental: as §1

[26] = test system: Staphylococcus aureus 19C; assay: broth-dilution microtiter MIC test; format: cell-based; conditions: Staphylococcus aureus, 19C
Experimental: as §1

Streptococcus sp. 19F = assay: broth-dilution microtiter MIC test; format: cell-based; conditions: Streptococcus, SP.19F
Experimental: as §1

[27] = test system: Streptococcus pyogenes C203; assay: protection of mice experimentally infected with S. pyogenes C203; format: in vivo; conditions: mice, mg/kg × 2, doses given 1 and 4 hours postinfection, read-out: ED50
Experimental: The formula 1 compounds have shown in vivo antimicrobial activity against experimentally-induced infections in laboratory animals. When two doses of test compound were administered to mice experimentally infected with S. pyrogenes C203, the activity observed was measured as an ED50 value [effective dose in mg/kg to protect 50% of the test animals: see Warren Wick, et al., J. Bacteriol. 81, 233-235 (1961)].
^a mg/kg × 2; doses given 1 and 4 hours postinfection

| Structure (SMILES) | MIC (Escherichia coli EC14) [µg/mL] | MIC [1] [µg/mL] | MIC [2] [µg/mL] | MIC [3] [µg/mL] | MIC [4] [µg/mL] | MIC [5] [µg/mL] | MIC [6] [µg/mL] | MIC [7] [µg/mL] | MIC [8] [µg/mL] | MIC [9] [µg/mL] | MIC [10] [µg/mL] | MIC [11] [µg/mL] | MIC [12] [µg/mL] | MIC [14] [µg/mL] | MIC [15] [µg/mL] | MIC [16] [µg/mL] | MIC [17] [µg/mL] | MIC (Mycoplasma hyorhinis 29E) [µg/mL] | MIC (Mycoplasma synoviae 40A) [µg/mL] | MIC [18] [µg/mL] | also measured |
| --- | --- | --- | --- | --- | --- | --- | --- | --- | --- | --- | --- | --- | --- | --- | --- | --- | --- | --- | --- | --- | --- |
| CCC1OC(=O)CC(O)C(C)C(OC2OC(C)C(O)C(N(C)C)C2O)C(CC=O)CC(C)C(=O)C=CC(C)=CC1COC1OC(C)C(OC(=O)CC(C)C)C(O)C1OC (centres unmarked) [Compound 26, 4"-O-Isovaleryl-lactenocin] | > 128 | 8 (≈ 9.5 µM) | 8 (≈ 9.5 µM) | > 128 | > 128 | 1 (≈ 1.19 µM) | 1 (≈ 1.19 µM) | 2 (≈ 2.38 µM) | 1 (≈ 1.19 µM) | 1 (≈ 1.19 µM) | 1 (≈ 1.19 µM) | 0.5 (≈ 0.594 µM) | 1 (≈ 1.19 µM) | > 50 | 50 (≈ 59.4 µM) | 1.56 (≈ 1.85 µM) | 50 (≈ 59.4 µM) | 1.56 (≈ 1.85 µM) | 3.12 (≈ 3.71 µM) | 50 (≈ 59.4 µM) | MIC [13]: 0.25 µg/mL (≈ 0.297 µM); MIC [19]: 25 µg/mL (≈ 29.7 µM); MIC [20]: 50 µg/mL (≈ 59.4 µM); MIC [21]: 25 µg/mL (≈ 29.7 µM); MIC [22]: 25 µg/mL (≈ 29.7 µM); MIC [23]: 25 µg/mL (≈ 29.7 µM); MIC [24]: 25 µg/mL (≈ 29.7 µM); MIC [25]: 12.5 µg/mL (≈ 14.8 µM); MIC [26]: 3.12 µg/mL (≈ 3.71 µM); MIC (Streptococcus sp. 19F): 1.56 µg/mL (≈ 1.85 µM); ED50 ([27]; C203, Oral): > 25 mg/kg; ED50 ([27]; C203, sc, Subcutaneous): 5.37 mg/kg |
| CCC1OC(=O)CC(O)C(C)C(OC2OC(C)C(O)C(N(C)C)C2OC(C)=O)C(CC=O)CC(C)C(=O)C=CC(C)=CC1COC1OC(C)C(OC(C)=O)C(OC(=O)COc2ccccc2)C1OC (centres unmarked) [Compound 37, 2',4"-Di-O-acetyl-3"-O-phenoxyacetyllactenocin] | > 128 | 4 (≈ 4.1 µM) | 16 (≈ 16.4 µM) | > 128 | > 128 | 1 (≈ 1.02 µM) | 1 (≈ 1.02 µM) | 2 (≈ 2.05 µM) | 1 (≈ 1.02 µM) | 2 (≈ 2.05 µM) | 1 (≈ 1.02 µM) | 0.5 (≈ 0.512 µM) | 1 (≈ 1.02 µM) | > 50 | 6.25 (≈ 6.4 µM) | 0.195 (≈ 0.2 µM) | 12.5 (≈ 12.8 µM) | 6.25 (≈ 6.4 µM) | 0.78 (≈ 0.799 µM) | 25 (≈ 25.6 µM) | MIC ([13]; agar-dilution, read-out: MIC): 0.12 µg/mL (≈ 0.123 µM); MIC [19]: 25 µg/mL (≈ 25.6 µM); MIC [20]: 25 µg/mL (≈ 25.6 µM); MIC [21]: 25 µg/mL (≈ 25.6 µM); MIC [22]: 25 µg/mL (≈ 25.6 µM); MIC [23]: 25 µg/mL (≈ 25.6 µM); MIC [24]: 25 µg/mL (≈ 25.6 µM); MIC [25]: 12.5 µg/mL (≈ 12.8 µM); MIC [26]: 1.56 µg/mL (≈ 1.6 µM); MIC (Streptococcus sp. 19F): 0.78 µg/mL (≈ 0.799 µM) |
| CCC1OC(=O)CC(O)C(C)C(OC2OC(C)C(O)C(N(C)C)C2O)C(CC=O)CC(C)C(=O)C=CC(C)=CC1COC1OC(C)C(OC(C)=O)C(OC(=O)COc2ccccc2)C1OC (centres unmarked) [Compound 38, 4"-O-Acetyl-3"-O-phenoxyacetyl-lactenocin] | > 128 | 8 (≈ 8.56 µM) | 16 (≈ 17.1 µM) | > 128 | > 128 | 1 (≈ 1.07 µM) | 1 (≈ 1.07 µM) | 2 (≈ 2.14 µM) | 1 (≈ 1.07 µM) | 2 (≈ 2.14 µM) | 2 (≈ 2.14 µM) | 0.5 (≈ 0.535 µM) | 1 (≈ 1.07 µM) | > 50 | 25 (≈ 26.8 µM) | 0.39 (≈ 0.418 µM) | 12.5 (≈ 13.4 µM) | 12.5 (≈ 13.4 µM) | 0.78 (≈ 0.835 µM) | 25 (≈ 26.8 µM) | MIC [13]: 0.25 µg/mL (≈ 0.268 µM); MIC [19]: 25 µg/mL (≈ 26.8 µM); MIC [20]: 50 µg/mL (≈ 53.5 µM); MIC [21]: 25 µg/mL (≈ 26.8 µM); MIC [22]: 25 µg/mL (≈ 26.8 µM); MIC [23]: 25 µg/mL (≈ 26.8 µM); MIC [24]: 12.5 µg/mL (≈ 13.4 µM); MIC [25]: 12.5 µg/mL (≈ 13.4 µM); MIC [26]: 3.12 µg/mL (≈ 3.34 µM); MIC (Streptococcus sp. 19F): 0.78 µg/mL (≈ 0.835 µM) |
